Values of other authors, collected in US4672107A, “Cell growth inhibitor and method” (Inbex, Inc., priority 1985, dated 1987).

Test system: human embryonic palatal mesenchymal cells
Settings: Yoneda and Pratt, Science 1981

Substance: Epidermal Growth Factor (NSDSECPLSHDGYCLHDGVCMYIEALDKYACNCVVGYIGERCQYRDLKWWELR; Epidermal growth factor; UniProt P01133 971-1023, looked up) [Epidermal Growth Factor (EGF)]
- stimulation of incorporation of 3[H]-thymidine into newly synthesized DNA: a little more than twofold
